# Data as given in patent US10189803B2, “Synthesis of therapeutic and diagnostic drugs centered on regioselective and stereoselective ring opening of aziridinium ions” (ILLINOIS INSTITUTE OF TECHNOLOGY, priority 2008, dated 2019).
# Several values for one entry are separate records, joined by “and”; a condition that tells them apart may be missing. Equal values may be shown once.
# How the values were obtained:
# [1] = In vitro serum stability of radiolabeled C-NE3TA complexes in human serum (SE-HPLC); format: in vitro ADME; conditions: 37° C., up to 11 days
# Protocol: C-NE3TA was radiolabeled with ^90Y, ^177Lu, ^203Pb, ^205/6Bi, or ^153Gd as previously described (Chong, H. S.; Milenic, D. E.; Garmestani, K.; Brady, E. D.; Arora, H.; Pfiester, C.; Brechbiel, M. W., Nucl. Med. Biol. 2006, 33, 459-67; Chong H S, Garmestani K, Bryant Jr., L H Milenic D E, Overstreet T, Birch N, Le N, Brady E D, Brechbiel M W. J. Med. Chem. 2006, 49, 2055-2062). In vitro serum stability of the radiolabeled complexes purified via ion-exchange chromatography was performed to determine if C-NE3TA labeled with the radioisotopes remained stable without transchelation or loss of their respective radionuclide in human serum. This was assessed by measuring the transfer of radionuclide from the complex to serum proteins over the course of 11 days.
# In vitro stability of the radiolabeled metal complexes. The stability of the purified radiolabeled complexes was evaluated in human serum (Gemini Bioproducts, Woodland, Calif.) for up to 11 days. The serum stability of the radiolabeled complexes was assessed by measuring the transfer of the radionuclide from each complex to serum proteins using SE-HPLC methods. Radiolabeled complexes were diluted to an appropriate volume that allowed for preparation of multiple samples containing 5-10 μCi and were filter-sterilized using a Millex-GV 0.22 μm filter. This stock solution was then mixed with 1400 μL of sterile normal human serum. Aliquots (200 μL) were drawn and separated into individual tubes for subsequent analysis using aseptic technique. The samples were incubated at 37° C., and at designated intervals, subjected to analysis by SE-HPLC. Samples were loaded onto the HPLC and eluted with PBS, pH 7.4 isocratically at 1 mL/min. […] Radioactivity associated with a transfer to serum proteins generally appeared at ˜6 min.
# [2] = In vivo biodistribution of radiolabeled complexes in normal athymic mice; conditions: for percent injected dose per gram, Blood / percent injected dose per gram, Femur / percent injected dose per gram, Heart / percent injected dose per gram, Kidney / percent injected dose per gram, Liver / percent injected dose per gram, Liver (second Liver line of Table 7) / percent injected dose per gram, Lung / percent injected dose per gram, Spleen: non-tumor bearing mice, ± SD
# Protocol: The in vivo stability of the radiolabeled complexes was evaluated by performing biodistribution studies in normal athymic mice. Selected organs and the blood were harvested at five time points, 0.5, 1, 4, 8, and 24 h post-injection and the radioactivity measured. […] C-NE3TA radiolabeled with ^153Gd was almost completely cleared from blood, liver, spleen, lung, heart, and femur in less than 4 hours, and radioactivity level in the kidney was 0.16%±0.11 ID/g at 24 hour post-injection (Table 9).
# In vivo biodistribution studies oh the radiolabeled metal complexes. Female athymic mice were obtained from Charles River Laboratories (Wilmington, Mass.) at 4-6 weeks of age. The pH of the radiolabeled ligands was adjusted to pH ˜7.0 with 0.5 M sodium bicarbonate (pH 10.5) and diluted in phosphate-buffered saline. The radiolabeled ligands ([…] for ^86Y, ^205/6Bi, ^177Lu, and ^203Pb) were administered to the mice in 200 μL of solution via tail vein injection. The mice (5 per data point) were sacrificed by exsanguination at 0.5, 1, 4, 8, and 24 h. Blood and the major organs were harvested, wet-weighed and the radioactivity measured in a γ-scintillation counter (1480 Wizard, Perkin Elmer). The percent injected dose per gram (% ID/g) was determined for each tissue. The values presented are the mean and standard deviation for each tissue.
smiles,measurement,setting,value
O=C(O)CNC(Cc1ccc([N+](=O)[O-])cc1)CN1CCN(CC(=O)O)CCN(CC(=O)O)CC1.[90Y] (stereo not drawn) [^90Y-C-NE3TA],stability in human serum (in words),[1],no measurable loss of radioactivity
same,"percent injected dose per gram, Blood",[2]; 0.50 hr,1.86 ± 1.92 % ID/g
same,"percent injected dose per gram, Femur",[2]; 0.50 hr,1.19 ± 0.48 % ID/g
same,"percent injected dose per gram, Heart",[2]; 0.50 hr,0.79 ± 0.52 % ID/g
same,"percent injected dose per gram, Kidney",[2]; 0.50 hr,2.58 ± 1.04 % ID/g
same,"percent injected dose per gram, Liver",[2]; 0.50 hr,1.65 ± 0.59 % ID/g
same,"percent injected dose per gram, Liver (second Liver line of Table 7)",[2]; 0.50 hr,0.48 ± 0.08 % ID/g
same,"percent injected dose per gram, Lung",[2]; 0.50 hr,1.64 ± 0.99 % ID/g
same,"percent injected dose per gram, Spleen",[2]; 0.50 hr,0.70 ± 0.15 % ID/g
same,"percent injected dose per gram, Blood",[2]; 1.00 hr,0.76 ± 1.09 % ID/g
same,"percent injected dose per gram, Femur",[2]; 1.00 hr,0.82 ± 0.26 % ID/g
same,"percent injected dose per gram, Heart",[2]; 1.00 hr,0.38 ± 0.31 % ID/g
same,"percent injected dose per gram, Kidney",[2]; 1.00 hr,2.00 ± 2.32 % ID/g
same,"percent injected dose per gram, Liver",[2]; 1.00 hr,0.88 ± 0.59 % ID/g
same,"percent injected dose per gram, Liver (second Liver line of Table 7)",[2]; 1.00 hr,0.32 ± 0.07 % ID/g
same,"percent injected dose per gram, Lung",[2]; 1.00 hr,1.16 ± 0.65 % ID/g
same,"percent injected dose per gram, Spleen",[2]; 1.00 hr,0.47 ± 0.26 % ID/g
same,"percent injected dose per gram, Blood",[2]; 4.00 hr,0.05 ± 0.05 % ID/g
same,"percent injected dose per gram, Femur",[2]; 4.00 hr,0.30 ± 0.04 % ID/g
same,"percent injected dose per gram, Heart",[2]; 4.00 hr,0.06 ± 0.02 % ID/g
same,"percent injected dose per gram, Kidney",[2]; 4.00 hr,0.74 ± 0.15 % ID/g
same,"percent injected dose per gram, Liver",[2]; 4.00 hr,0.17 ± 0.05 % ID/g
same,"percent injected dose per gram, Liver (second Liver line of Table 7)",[2]; 4.00 hr,0.29 ± 0.03 % ID/g
same,"percent injected dose per gram, Lung",[2]; 4.00 hr,0.10 ± 0.04 % ID/g
same,"percent injected dose per gram, Spleen",[2]; 4.00 hr,0.13 ± 0.08 % ID/g
same,"percent injected dose per gram, Blood",[2]; 8.00 hr,0.02 ± 0.00 % ID/g
same,"percent injected dose per gram, Femur",[2]; 8.00 hr,0.22 ± 0.06 % ID/g
same,"percent injected dose per gram, Heart",[2]; 8.00 hr,0.05 ± 0.01 % ID/g
same,"percent injected dose per gram, Kidney",[2]; 8.00 hr,0.49 ± 0.10 % ID/g
same,"percent injected dose per gram, Liver",[2]; 8.00 hr,0.20 ± 0.16 % ID/g
same,"percent injected dose per gram, Liver (second Liver line of Table 7)",[2]; 8.00 hr,0.22 ± 0.03 % ID/g
same,"percent injected dose per gram, Lung",[2]; 8.00 hr,0.16 ± 0.22 % ID/g
same,"percent injected dose per gram, Spleen",[2]; 8.00 hr,0.07 ± 0.02 % ID/g
same,"percent injected dose per gram, Blood",[2]; 24.00 hr,0.00 ± 0.00 % ID/g
same,"percent injected dose per gram, Femur",[2]; 24.00 hr,0.08 ± 0.02 % ID/g
same,"percent injected dose per gram, Heart",[2]; 24.00 hr,0.02 ± 0.01 % ID/g
same,"percent injected dose per gram, Kidney",[2]; 24.00 hr,0.35 ± 0.05 % ID/g
same,"percent injected dose per gram, Liver",[2]; 24.00 hr,0.10 ± 0.03 % ID/g
same,"percent injected dose per gram, Liver (second Liver line of Table 7)",[2]; 24.00 hr,0.17 ± 0.02 % ID/g
same,"percent injected dose per gram, Lung",[2]; 24.00 hr,0.23 ± 0.36 % ID/g
same,"percent injected dose per gram, Spleen",[2]; 24.00 hr,0.07 ± 0.02 % ID/g
same,blood and organ clearance (in words),[2]; normal athymic mice,rapid blood and liver clearance
O=C(O)CNC(Cc1ccc([N+](=O)[O-])cc1)CN1CCN(CC(=O)O)CCN(CC(=O)O)CC1.[153Gd] (stereo not drawn) [^153Gd-C-NE3TA],stability in human serum (in words),[1],no measurable loss of radioactivity
same,"percent injected dose per gram, Blood",[2]; 0.50 hr,1.41 ± 0.57 % ID/g
same,"percent injected dose per gram, Femur",[2]; 0.50 hr,0.43 ± 0.14 % ID/g
same,"percent injected dose per gram, Heart",[2]; 0.50 hr,0.43 ± 0.16 % ID/g
same,"percent injected dose per gram, Kidney",[2]; 0.50 hr,4.28 ± 1.33 % ID/g
same,"percent injected dose per gram, Liver",[2]; 0.50 hr,1.74 ± 0.69 % ID/g
same,"percent injected dose per gram, Lung",[2]; 0.50 hr,0.91 ± 0.28 % ID/g
same,"percent injected dose per gram, Spleen",[2]; 0.50 hr,0.50 ± 0.37 % ID/g
same,"percent injected dose per gram, Blood",[2]; 1.00 hr,0.20 ± 0.08 % ID/g
same,"percent injected dose per gram, Femur",[2]; 1.00 hr,1.30 ± 0.58 % ID/g
same,"percent injected dose per gram, Heart",[2]; 1.00 hr,0.14 ± 0.06 % ID/g
same,"percent injected dose per gram, Kidney",[2]; 1.00 hr,1.13 ± 0.12 % ID/g
same,"percent injected dose per gram, Liver",[2]; 1.00 hr,0.58 ± 0.22 % ID/g
same,"percent injected dose per gram, Lung",[2]; 1.00 hr,0.32 ± 0.09 % ID/g
same,"percent injected dose per gram, Spleen",[2]; 1.00 hr,0.24 ± 0.05 % ID/g
same,"percent injected dose per gram, Blood",[2]; 4.00 hr,0.00 ± 0.00 % ID/g
same,"percent injected dose per gram, Femur",[2]; 4.00 hr,0.02 ± 0.01 % ID/g
same,"percent injected dose per gram, Heart",[2]; 4.00 hr,0.01 ± 0.00 % ID/g
same,"percent injected dose per gram, Kidney",[2]; 4.00 hr,0.52 ± 0.04 % ID/g
same,"percent injected dose per gram, Liver",[2]; 4.00 hr,0.03 ± 0.01 % ID/g
same,"percent injected dose per gram, Lung",[2]; 4.00 hr,0.03 ± 0.00 % ID/g
same,"percent injected dose per gram, Spleen",[2]; 4.00 hr,0.02 ± 0.00 % ID/g
same,"percent injected dose per gram, Blood",[2]; 8.00 hr,0.00 ± 0.00 % ID/g
same,"percent injected dose per gram, Femur",[2]; 8.00 hr,0.02 ± 0.00 % ID/g
same,"percent injected dose per gram, Heart",[2]; 8.00 hr,0.01 ± 0.00 % ID/g
same,"percent injected dose per gram, Kidney",[2]; 8.00 hr,0.38 ± 0.06 % ID/g
same,"percent injected dose per gram, Liver",[2]; 8.00 hr,0.02 ± 0.00 % ID/g
same,"percent injected dose per gram, Lung",[2]; 8.00 hr,0.02 ± 0.00 % ID/g
same,"percent injected dose per gram, Spleen",[2]; 8.00 hr,0.02 ± 0.00 % ID/g
same,"percent injected dose per gram, Blood",[2]; 24.00 hr,0.00 ± 0.00 % ID/g
same,"percent injected dose per gram, Femur",[2]; 24.00 hr,0.01 ± 0.00 % ID/g
same,"percent injected dose per gram, Heart",[2]; 24.00 hr,0.13 ± 0.27 % ID/g
same,"percent injected dose per gram, Kidney",[2]; 24.00 hr,0.16 % ID/g and 0.16 ± 0.11 % ID/g
same,"percent injected dose per gram, Liver",[2]; 24.00 hr,0.02 ± 0.01 % ID/g
same,"percent injected dose per gram, Lung",[2]; 24.00 hr,0.01 ± 0.01 % ID/g
same,"percent injected dose per gram, Spleen",[2]; 24.00 hr,0.01 ± 0.01 % ID/g
